This passage reports IC50 results from patent US4820834A, “Benzodiazepine analogs” (priority 1987, dated 1989).

Like-named read-outs stand apart in the source and are kept apart here.

In general, IC50 refers to the point on the concentration scale where inhibition reaches its midpoint.

The target of assay [1] is T1, CCK receptor (brain, cerebral cortex) (Cavia porcellus, UniProt H0VZC5).
T1 construct: Cerebral cortex was dissected and used as a receptor source; from tissue; host or cells: guinea pig cerebral cortex membranes (male Hartley)
T1 sequence (H0VZC5 1-426): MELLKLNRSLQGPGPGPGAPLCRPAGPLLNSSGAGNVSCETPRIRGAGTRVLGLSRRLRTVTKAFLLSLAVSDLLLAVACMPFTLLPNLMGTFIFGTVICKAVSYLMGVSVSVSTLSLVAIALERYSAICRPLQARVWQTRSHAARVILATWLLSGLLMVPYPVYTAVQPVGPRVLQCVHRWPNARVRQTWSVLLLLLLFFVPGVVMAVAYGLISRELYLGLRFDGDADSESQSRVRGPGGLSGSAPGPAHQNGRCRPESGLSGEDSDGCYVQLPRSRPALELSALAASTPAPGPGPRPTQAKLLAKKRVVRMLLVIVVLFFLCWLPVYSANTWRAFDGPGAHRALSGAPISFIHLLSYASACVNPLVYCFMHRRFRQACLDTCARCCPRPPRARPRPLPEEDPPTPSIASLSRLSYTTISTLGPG
Description: biochemical. It counts as binding, Male Hartley guinea pigs. The gist of the method:
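Binding of [radiolabeled] CCK-33 measured by gamma counting of centrifuged pellets after 2 h at 25°C. Membranes came from guinea pig brain cortex, suspended in 10 mM HEPES, 5 mM MgCl2, 1 mM EGTA, 0.25 mg/ml bacitracin, 0.4% BSA.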

Assay [2] concerns the target T2, Gastrin receptor (gastric glands) (Cavia porcellus, UniProt H0VZC5).
T2 construct: The washed guinea pig gastric glands prepared as above were resuspended; from tissue; host or cells: guinea pig gastric mucosal glands (male Hartley)
T2 sequence (H0VZC5 1-426): T1 sequence (H0VZC5 1-426)
The experiment in a line: Gastrin Receptor Binding in Guinea Pig Gastric Glands. On the set-up: species or system guinea pig (male Hartley).

In the next assay the target is T3, CCK receptor (pancreas) (Rattus norvegicus, UniProt P30551).
T3 construct: The whole pancreas was dissected free of fat tissue and was homogenized; from tissue; host or cells: rat pancreas membranes (Sprague-Dawley)
T3 sequence (P30551 1-444): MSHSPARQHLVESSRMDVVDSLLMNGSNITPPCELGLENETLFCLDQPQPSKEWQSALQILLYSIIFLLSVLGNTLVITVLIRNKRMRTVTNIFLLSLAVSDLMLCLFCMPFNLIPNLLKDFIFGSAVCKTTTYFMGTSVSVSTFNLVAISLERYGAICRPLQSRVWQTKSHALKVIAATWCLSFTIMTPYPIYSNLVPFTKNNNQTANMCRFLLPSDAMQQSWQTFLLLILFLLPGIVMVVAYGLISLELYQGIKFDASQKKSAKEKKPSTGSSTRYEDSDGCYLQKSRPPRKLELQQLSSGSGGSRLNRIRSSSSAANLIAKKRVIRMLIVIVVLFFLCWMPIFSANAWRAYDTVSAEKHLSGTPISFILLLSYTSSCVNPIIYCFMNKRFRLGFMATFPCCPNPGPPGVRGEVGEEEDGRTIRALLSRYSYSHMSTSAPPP
Description: CCK Receptor Binding (Pancreas): inhibition of ^125 I-CCK-33 binding. Also noted: species or system Male Sprague-Dawley rats. The gist of the method:
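Bound ^125I-CCK-33 was counted in pellets after a 30 min, 37° C incubation followed by centrifugation. Membranes came from male Sprague-Dawley rat pancreas, assayed in Tris HCl pH 7.7 containing DTT, bacitracin, PMSF and o-phenanthroline. For Scatchard analysis, tracer was diluted with rising unlabelled CCK-33.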

[3] abbreviates: IC50 ^125 I-CCK Brain, guinea pig cerebral cortex, ^125 I-CCK-33, 25° C., 2 hours.
The mark [4] stands for this setting: ^125 I-gastrin, 25° C., 30 minutes, read-out: IC50 ^125 I-Gastrin Gastric Glands.
The mark [5] stands for this setting: rat pancreas membranes, ^125 I-CCK-33, 37° C., 30 minutes; read-out: IC50 ^125 I-CCK Pancreas.
Where [6] appears, read: IC50 ^125 I-CCK Pancreas, rat pancreas membranes, ^125 I-CCK-33, 37° C., 30 minutes.
The mark [7] stands for this setting: read-out: IC50 ^125 I-CCK Brain; guinea pig cerebral cortex, ^125 I-CCK-33, 25° C., 2 hours.
The mark [8] stands for this setting: guinea pig cerebral cortex, ^125 I-CCK-33, 25° C., 2 hours; read-out: IC50 ^125 I-CCK Brain.
[9] abbreviates: IC50 ^125 I-Gastrin Gastric Glands, 25° C., 30 minutes.

Take `CN1C(=O)[C@@H](NC(=O)c2ccc(Cl)cc2)N=C(c2ccccc2F)c2ccccc21` [Example 91, 3(S)-(+)-1,3-Dihydro-3-(4-chlorobenzoylamino)-5-(2-fluorophenyl)-1-methyl-2H-1,4-benzodiazepin-2-one]: the values for the IC50 (in assay [1] (setting [3]); in assay [2] (setting [4]); on CCK receptor (pancreas) (setting [5])) were 2900 nM, 800 nM and 2.5 nM, respectively.

Take `CN1C(=O)[C@@H](NC(=O)c2ccc(Br)cc2)N=C(c2ccccc2)c2ccccc21` [Example 92, 3(S)-(-)-1,3-Dihydro-3-(4-bromobenzoylamino)-1-methyl-5-phenyl-2H-1,4-benzodiazepin-2-one]: the values for the IC50 (in assay [1] (setting [3]); in assay [2] (setting [4]); on CCK receptor (pancreas) (setting [6])) were 1600 nM, 620 nM and 4.3 nM, respectively.

For the molecule `CN1C(=O)[C@H](NC(=O)c2ccc(Br)cc2)N=C(c2ccccc2)c2ccccc21` [Example 93, 3(R)-(+)-1,3-Dihydro-3-(4-bromobenzoylamino)-1-methyl-5-phenyl-2H-1,4-benzodiazepin-2-one], the IC50 was determined as 2900 nM in assay [1] (setting [3]), 2000 nM in assay [2] (setting [4]) and 700 nM on CCK receptor (pancreas) (setting [5]).

`O=C(O)CCN1C(=O)[C@@H](Cc2c[nH]c3ccccc23)N=C(c2ccccc2F)c2ccccc21` [Example 103, (2-Carboxyethyl)-1,3-dihydro-5-(2-fluorophenyl)-3(R)-(3'-indolyl)methyl-2H-1,4-benzodiazepin-2-one]: the IC50 was 11000 nM in assay [1] (setting [7]); 5800 nM in assay [2] (read-out: IC50 ^125 I-Gastrin Gastric Glands, 25° C., 30 minutes); 1400 nM at CCK receptor (pancreas) (read-out: IC50 ^125 I-CCK Pancreas; rat pancreas membranes, ^125 I-CCK-33, 37° C., 30 minutes).

`O=CNc1ccccc1C(=O)CC1N=C(c2ccccc2F)c2ccccc2NC1=O` (stereo not drawn) [Example 104, 1,3-Dihydro-5-(2-fluorophenyl)-3-(2-formylaminobenzoylmethyl)-2H-1,4-benzodiazepin-2-one]: the IC50 in assay [1] (setting [8]) was greater than 100000 nM; in assay [2] (setting [4]) it was greater than 100000 nM; at CCK receptor (pancreas) (setting [6]) it was 300 nM.

Take `O=C(NC1N=C(c2ccccc2)c2ccccc2NC1=O)C1Cc2ccccc2N1` (stereo not drawn) [Example 133, 1,3-Dihydro-3-(RS)-(2-indolinecarbonylamino)-5-phenyl-2-H-1,4-benzodiazepin-2-one]: the figures for the IC50 (in assay [1] (setting [3]); in assay [2] (setting [9]); on CCK receptor (pancreas) (setting [5])) were greater than 40000 nM, 110000 nM and 900 nM, respectively.

Take `CN1C(=O)[C@@H](NC(=O)c2ccccc2Cl)N=C(c2ccccc2)c2ccccc21` [Example 150, 3(S)-(-)-3-(2-Chlorobenzoylamino)-1,3-dihydro-1-methyl-5-phenyl-2H-1,4-benzodiazepin-2-one]: the figures for the IC50 (in assay [1] (setting [7]); in assay [2] (setting [4]); on CCK receptor (pancreas) (setting [5])) were 83000 nM, 130000 nM and 1700 nM, respectively.

Consider `CN1C(=O)[C@H](NC(=O)c2ccccc2Cl)N=C(c2ccccc2)c2ccccc21` [Example 151, 3(R)-(+)-3-(2-Chlorobenzoylamino)-1,3-dihydro-1-methyl-5-phenyl-2H-1,4-benzodiazepin-2-one], for which the IC50 was 22000 nM in assay [1] (setting [7]), 7500 nM in assay [2] (setting [4]) and 11000 nM on CCK receptor (pancreas) (setting [5]).

On to `CN1C(=O)[C@@H](NC(=O)c2cccc(Br)c2)N=C(c2ccccc2F)c2ccccc21` [Example 154, 3(S)-(+)-3-(3-Bromobenzoylamino)-1,3-dihydro-5-(2-fluorophenyl)-1-methyl-2H-1,4-benzodiazepin-2-one], for which the IC50 came out at 3500 nM in assay [1] (setting [3]), 500 nM in assay [2] (setting [4]) and 3.5 nM at CCK receptor (pancreas) (setting [5]).

`CN1C(=O)[C@@H](NC(=O)c2ccc(Br)cc2)N=C(c2ccccc2F)c2ccccc21` [Example 156, 3(S)-(+)-3-(4-Bromobenzoylamino)-1,3-dihydro-5-(2-fluorophenyl)-1-methyl-2H-1,4-benzodiazepin-2-one]: the IC50 in assay [1] (setting [3]) is 4000 nM; in assay [2] (setting [4]), 680 nM; at CCK receptor (pancreas) (setting [6]) it was 3.5 nM.

For `CN1C(=O)[C@@H](NC(=O)c2ccc(C(C)(C)C)cc2)N=C(c2ccccc2F)c2ccccc21` [Example 157, 3(S)-(+)-3-(4-t-Butylbenzoylamino)-1,3-dihydro-5-(2-fluorophenyl)-1-methyl-2H-1,4-benzodiazepin-2-one], the figures for the IC50 (in assay [1] (setting [8]); in assay [2] (setting [4]); at CCK receptor (pancreas) (setting [5])) were 8000 nM, 2400 nM and 19 nM, respectively.

For the molecule `CN1C(=O)[C@@H](NC(=O)c2ccc(I)cc2)N=C(c2ccccc2F)c2ccccc21` [Example 159, 3(S)-(+)-1,3-Dihydro-5-(2-fluorophenyl)-3-(4-iodobenzoylamino)-1-methyl-2H-1,4-benzodiazepin-2-one], the figures for the IC50 (in assay [1] (setting [3]); in assay [2] (setting [4]); on CCK receptor (pancreas) (setting [6])) were 3000 nM, 530 nM and 3.4 nM, respectively.

Consider `CN1C(=O)[C@@H](NC(=O)c2ccc(C#N)cc2)N=C(c2ccccc2F)c2ccccc21` [Example 162, 3(S)-(+)-3-(4-Cyanobenzoylamino)-1,3-dihydro-5-(2-fluorophenyl)-1-methyl-2H-1,4-benzodiazeoin-2-one], for which the IC50 was determined as 31000 nM in assay [1] (setting [3]), 9000 nM in assay [2] (setting [4]) and 43 nM at CCK receptor (pancreas) (setting [5]).

Take `CN1C(=O)[C@H](NC(=O)c2cccc(I)c2)N=C(c2ccccc2F)c2ccccc21` [Example 168, 3(R)-(-)-1,3-Dihydro-5-(2-fluorophenyl)-3-(3-iodobenzoylamino)-1-methyl-2H-1,4-benzodiazepin-2-one]: the results for the IC50 (in assay [1] (setting [8]); in assay [2] (setting [4]); at CCK receptor (pancreas) (setting [5])) were 2400 nM, 2000 nM and 15 nM, respectively.

Consider `CN1C(=O)[C@H](NC(=O)c2ccccc2I)N=C(c2ccccc2F)c2ccccc21` [Example 169, 3(R)-(+)-1,3-Dihydro-5-(2-fluorophenyl)-3-(2-iodobenzoylamino)-1-methyl-2H-1,4-benzodiazepin-2-one], for which the figures for the IC50 (in assay [1] (setting [3]); in assay [2] (setting [4]); at CCK receptor (pancreas) (setting [5])) were 3800 nM, 4400 nM and 58000 nM, respectively.

On to `CN1C(=O)[C@@H](NC(=O)c2ccccc2I)N=C(c2ccccc2F)c2ccccc21` [Example 170, 3(S)-(-)-1,3-Dihydro-5-(2-fluorophenyl)-3-(2-iodobenzoylamino)-1-methyl-2H-1,4-benzodiazepin-2-one], for which the IC50 in assay [1] (setting [3]) worked out at 45000 nM; in assay [2] (setting [4]), 11000 nM; on CCK receptor (pancreas) (setting [5]), 800 nM.

Take `CN1C(=O)[C@H](NC(=O)c2ccccc2Cl)N=C(c2ccccc2F)c2ccccc21` [Example 172, 3(R)-(+)-3-(2-Chlorobenzoylamino)-1,3-dihydro-5-(2-fluorophenyl)-1-methyl-2H-1,4-benzodiazepin-2-one]: the IC50 is 16000 nM in assay [1] (setting [3]), 3700 nM in assay [2] (setting [9]) and 3400 nM at CCK receptor (pancreas) (setting [5]).

For `O=C(N[C@H]1N=C(c2ccccc2)c2ccccc2NC1=O)c1cc2ccccc2[nH]1` [Example 187, 3(S)-(2-Indolecarbonyl)amino-1,3-dihydro-5-phenyl-2H-1,4,-benzodiazepin-2-one], the values for the IC50 (in assay [1] (setting [3]); in assay [2] (setting [9]); on CCK receptor (pancreas) (setting [6])) were 1300 nM, 5300 nM and 3 nM, respectively.

For the molecule `CC(C)C(=O)N[C@H]1N=C(c2ccccc2)c2ccccc2N(C)C1=O` [Example 189, (S)-N-(2,3-Dihydro-1-methyl-2-oxo-5-phenyl-1H-1,4-benzodiazepin-3-yl)-2-methylpropanamide], the IC50 in assay [1] (setting [3]) was greater than 100000 nM; in assay [2] (setting [9]), 73000 nM; at CCK receptor (pancreas) (setting [5]), 1100 nM.

Turning to `CC(C)CC(=O)N[C@H]1N=C(c2ccccc2)c2ccccc2N(C)C1=O` [Example 190, (S)-N-(2,3-Dihydro-1-methyl-2-oxo-5-phenyl-1H-1,4-benzodiazepin-3-yl)-3-methylbutanamide], the results for the IC50 (in assay [1] (setting [8]); in assay [2] (setting [4]); on CCK receptor (pancreas) (setting [6])) were greater than 100000 nM, 130000 nM and 780 nM, respectively.
